One data set addresses EGFR wild type (EGFR WT) (Homo sapiens (Human), UniProt P00533). As to the kind of experiment: Cellular phosphorylation assay, EGF-stimulated EGFR phosphorylation in engineered NIH 3T3 cells, Phospho-EGFR DuoSet IC ELISA, Assay 5. It is filed as cell-based. The essentials:
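Phospho-EGFR ELISA on lysates of engineered NIH 3T3 EGFR WT cells, IC50 derived from concentration curves. Cells plated at 20,000/well overnight, given compound dilutions 1 h at 37 °C, then rEGF 100 ng/ml for a further 10 min before lysis.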

The next data set addresses ErbB2 WT (Homo sapiens (Human), UniProt P04626). As to the kind of experiment: ErbB enzyme assay (CisBio HTRF KinEASE-TK), Assay 2. It is filed as biochemical. The essentials:
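Readout is HTRF KinEASE-TK, using Sa-XL665 and cryptate antibody for 1 h at 22 °C, as percent of control between DMSO-only (100) and pre-quenched (0) reactions. The kinase reaction runs 30 min at 22 °C with 1 mM ATP and 250 nM biotinylated TK substrate, in HEPES pH 7.4 with MgCl2 and 2% DMSO.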

The next data set has as its target MDR1 (P-gp) (Homo sapiens (Human), UniProt P08183). Put plainly: MDR1 transfected LLC-PK1 permeability/efflux, Assay 6. As to conditions: pig.
The target of data set [1] is ErbB2 with Exon 20 YVMA insertion (HER2-YVMA) (Homo sapiens (Human), UniProt P04626, INS775YVMA). Put plainly: Cellular phosphorylation assay, constitutive ErbB2 phosphorylation (Y1196) in engineered NIH 3T3 cells, Assay 4. It is filed as cell-based. The essentials:
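In-cell Western in NIH 3T3 cells carrying ErbB2 exon 20 YVMA insertion, with no ligand stimulation. One hour compound exposure at 37 °C before fixation and anti-pY1196 plus GAPDH staining with dual-wavelength fluorescence. IC50 derived after GAPDH normalization.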

In data set [2] the target is ErbB2 insYVMA (HER2-YVMA, SEQ ID NO: 2) (Homo sapiens, UniProt P04626, INS775YVMA/P1170A). As to the kind of experiment: biochemical. As to conditions: ErbB2 insYVMA enzyme assay; read-out: Assay 1 IC50.
The target of the next data set is EGFR (Homo sapiens (Human), UniProt P00533). As to the kind of experiment: ErbB enzyme assay (CisBio HTRF KinEASE-TK), Assay 3. It is filed as biochemical. An outline of the steps:
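HTRF dual-wavelength read after 1 h detection; POC normalised to DMSO (100) and pre-quenched (0) controls, IC50 where 4-parameter curve crosses 50 POC. Reaction: 250 nM TK-substrate biotin, 1 mM ATP, pH 7.4 HEPES buffer with MgCl2, 30 min, 22 °C.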

[3] abbreviates: LLC-PK1, Assay 6 Pe Ratio, efflux ratio Papp(B-A)/Papp(A-B), MDR1 transfected LLC-PK1.

EGFR, sequence (P00533 25-1210): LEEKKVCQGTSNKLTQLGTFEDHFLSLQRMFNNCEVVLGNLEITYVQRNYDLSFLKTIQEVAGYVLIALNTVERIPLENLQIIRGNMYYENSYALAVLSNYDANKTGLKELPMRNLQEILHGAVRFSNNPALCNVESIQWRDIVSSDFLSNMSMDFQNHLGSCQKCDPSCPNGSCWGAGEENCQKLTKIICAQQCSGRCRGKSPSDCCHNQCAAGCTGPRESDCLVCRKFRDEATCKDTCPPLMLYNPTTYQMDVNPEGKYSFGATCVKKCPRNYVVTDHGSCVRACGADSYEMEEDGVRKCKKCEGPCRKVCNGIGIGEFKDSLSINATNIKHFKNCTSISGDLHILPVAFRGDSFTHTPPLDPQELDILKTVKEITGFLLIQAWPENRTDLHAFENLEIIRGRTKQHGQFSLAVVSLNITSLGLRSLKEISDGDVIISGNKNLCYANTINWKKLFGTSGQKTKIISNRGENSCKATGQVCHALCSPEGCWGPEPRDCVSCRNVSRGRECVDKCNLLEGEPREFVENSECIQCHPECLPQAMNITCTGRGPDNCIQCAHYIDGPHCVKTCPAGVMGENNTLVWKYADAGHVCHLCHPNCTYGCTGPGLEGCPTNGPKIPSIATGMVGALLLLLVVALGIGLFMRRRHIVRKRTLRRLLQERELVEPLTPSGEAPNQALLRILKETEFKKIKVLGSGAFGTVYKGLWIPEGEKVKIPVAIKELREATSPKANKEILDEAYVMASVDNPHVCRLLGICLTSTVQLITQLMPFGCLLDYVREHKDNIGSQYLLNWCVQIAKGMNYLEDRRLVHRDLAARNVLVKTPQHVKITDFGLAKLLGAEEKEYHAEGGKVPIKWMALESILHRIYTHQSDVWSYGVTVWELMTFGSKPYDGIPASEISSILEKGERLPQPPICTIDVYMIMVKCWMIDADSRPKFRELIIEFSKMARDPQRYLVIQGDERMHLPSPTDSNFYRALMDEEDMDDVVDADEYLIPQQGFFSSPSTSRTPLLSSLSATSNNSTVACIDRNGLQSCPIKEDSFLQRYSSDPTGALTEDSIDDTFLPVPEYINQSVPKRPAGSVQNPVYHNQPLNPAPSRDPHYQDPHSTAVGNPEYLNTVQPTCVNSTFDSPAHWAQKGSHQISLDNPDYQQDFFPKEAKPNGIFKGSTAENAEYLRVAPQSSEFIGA
EGFR wild type (EGFR WT), sequence (P00533 25-1210): as above
MDR1 (P-gp), sequence (P08183 whole entry): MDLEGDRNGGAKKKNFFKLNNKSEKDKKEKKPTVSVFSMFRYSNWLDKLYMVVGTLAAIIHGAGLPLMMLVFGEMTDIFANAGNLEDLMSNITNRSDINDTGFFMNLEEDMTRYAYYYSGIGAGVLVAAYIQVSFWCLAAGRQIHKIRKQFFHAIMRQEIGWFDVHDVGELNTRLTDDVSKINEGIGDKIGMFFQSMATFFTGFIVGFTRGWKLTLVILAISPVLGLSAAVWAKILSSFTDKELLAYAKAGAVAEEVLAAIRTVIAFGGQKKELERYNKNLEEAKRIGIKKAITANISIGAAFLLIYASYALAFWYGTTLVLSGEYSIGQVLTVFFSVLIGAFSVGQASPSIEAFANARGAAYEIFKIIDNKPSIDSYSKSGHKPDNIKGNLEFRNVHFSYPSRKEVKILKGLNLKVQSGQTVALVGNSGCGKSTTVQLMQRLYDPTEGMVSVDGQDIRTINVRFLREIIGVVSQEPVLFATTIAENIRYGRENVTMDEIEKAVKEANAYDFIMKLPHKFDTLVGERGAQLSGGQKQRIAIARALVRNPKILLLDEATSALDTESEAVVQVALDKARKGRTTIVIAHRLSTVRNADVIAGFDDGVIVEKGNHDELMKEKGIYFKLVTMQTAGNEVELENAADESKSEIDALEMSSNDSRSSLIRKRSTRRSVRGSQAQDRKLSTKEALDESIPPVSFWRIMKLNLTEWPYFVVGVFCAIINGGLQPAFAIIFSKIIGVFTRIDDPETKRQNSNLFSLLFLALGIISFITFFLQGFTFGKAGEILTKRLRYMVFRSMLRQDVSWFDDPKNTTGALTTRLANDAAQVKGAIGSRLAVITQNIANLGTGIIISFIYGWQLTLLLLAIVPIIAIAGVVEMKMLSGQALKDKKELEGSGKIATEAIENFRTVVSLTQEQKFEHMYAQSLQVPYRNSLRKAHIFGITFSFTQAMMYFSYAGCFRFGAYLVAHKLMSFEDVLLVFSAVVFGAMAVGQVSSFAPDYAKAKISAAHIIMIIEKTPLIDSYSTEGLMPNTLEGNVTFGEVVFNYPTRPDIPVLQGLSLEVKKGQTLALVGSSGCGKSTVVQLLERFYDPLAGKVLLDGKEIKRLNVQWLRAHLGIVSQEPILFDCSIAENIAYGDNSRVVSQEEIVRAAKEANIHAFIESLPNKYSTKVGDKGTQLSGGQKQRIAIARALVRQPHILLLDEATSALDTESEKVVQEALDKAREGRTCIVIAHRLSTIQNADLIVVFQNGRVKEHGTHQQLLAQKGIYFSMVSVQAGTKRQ
ErbB2 with Exon 20 YVMA insertion (HER2-YVMA), sequence (P04626 other isoform, or with tags, fused parts or gaps ins YVMA behind 775): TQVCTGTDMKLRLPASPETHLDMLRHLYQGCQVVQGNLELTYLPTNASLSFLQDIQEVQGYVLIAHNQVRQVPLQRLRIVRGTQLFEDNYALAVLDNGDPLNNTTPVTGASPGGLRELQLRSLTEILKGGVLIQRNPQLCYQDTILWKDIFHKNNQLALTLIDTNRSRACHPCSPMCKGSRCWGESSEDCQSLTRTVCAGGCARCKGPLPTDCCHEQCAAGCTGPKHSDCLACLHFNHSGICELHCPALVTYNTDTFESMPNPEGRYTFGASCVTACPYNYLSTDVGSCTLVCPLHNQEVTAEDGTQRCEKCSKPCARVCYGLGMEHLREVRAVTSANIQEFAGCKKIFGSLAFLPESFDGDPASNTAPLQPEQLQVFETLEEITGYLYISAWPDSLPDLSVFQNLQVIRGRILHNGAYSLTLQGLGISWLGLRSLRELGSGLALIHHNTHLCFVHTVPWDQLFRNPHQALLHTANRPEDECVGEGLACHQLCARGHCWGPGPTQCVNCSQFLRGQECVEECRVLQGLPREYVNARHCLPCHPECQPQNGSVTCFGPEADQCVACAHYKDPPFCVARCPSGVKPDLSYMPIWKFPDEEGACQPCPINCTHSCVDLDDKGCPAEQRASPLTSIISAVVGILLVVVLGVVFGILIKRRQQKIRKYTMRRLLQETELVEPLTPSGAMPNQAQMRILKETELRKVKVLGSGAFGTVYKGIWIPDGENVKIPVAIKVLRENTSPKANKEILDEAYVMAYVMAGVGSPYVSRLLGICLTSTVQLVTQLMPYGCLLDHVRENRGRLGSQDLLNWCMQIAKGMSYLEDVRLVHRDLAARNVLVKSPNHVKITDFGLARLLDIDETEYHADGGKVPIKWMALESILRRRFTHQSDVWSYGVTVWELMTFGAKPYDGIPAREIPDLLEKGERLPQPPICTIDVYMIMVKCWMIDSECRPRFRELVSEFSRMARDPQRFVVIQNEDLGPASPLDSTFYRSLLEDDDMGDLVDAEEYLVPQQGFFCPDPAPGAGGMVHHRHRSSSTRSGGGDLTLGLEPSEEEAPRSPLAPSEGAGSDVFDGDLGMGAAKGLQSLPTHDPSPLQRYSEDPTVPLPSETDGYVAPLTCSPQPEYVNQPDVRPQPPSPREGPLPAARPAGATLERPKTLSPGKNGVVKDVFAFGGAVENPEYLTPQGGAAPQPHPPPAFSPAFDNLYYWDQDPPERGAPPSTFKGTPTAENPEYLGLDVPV

As for `Cc1cc(Nc2ncnc3cnc(N4CC[C@@H](S(C)(=O)=O)C4)nc23)ccc1Oc1ccc2c(c1)ncn2C` [Example 125, (R)—N-(3-methyl-4-((1-methyl-1H-benzo[d]imidazol-5-yl)oxy)phenyl)-6-(3-(methylsulfonyl)pyrrolidin-1-yl)pyrimido[5,4-d]pyrimidin-4-amine], the IC50 is not below 5000 nM against EGFR wild type (EGFR WT); 55.6 nM on ErbB2 WT; 32.4 nM in data set [1]; 24.8 nM in data set [2]; not below 10000 nM against EGFR. The efflux ratio at 2 h, 1 μM on MDR1 (P-gp) (setting [3]) was 36.1.
Consider `Cc1cc(Nc2ncnc3cnc(N4CC[C@H](C(C)(C)O)C4)nc23)ccc1Oc1ccc2c(c1)ncn2C` [Example 126, (S)-2-(1-(8-((3-methyl-4-((1-methyl-1H-benzo[d]imidazol-5-yl)oxy)phenyl)amino)pyrimido[5,4-d]pyrimidin-2-yl)pyrrolidin-3-yl)propan-2-ol], for which the IC50 against EGFR wild type (EGFR WT) was not below 5000 nM; against ErbB2 WT it was 18.3 nM; in data set [1], 14.3 nM; in data set [2], 15.5 nM; against EGFR, not below 10000 nM. Further, the efflux ratio at 2 h, 1 μM on MDR1 (P-gp) (setting [3]) is 3.8.
Turning to `Cc1cc(Nc2ncnc3cnc(N(C)CC4(O)CC4)nc23)ccc1Oc1ccc2c(c1)ncn2C` [Example 166, 1-((methyl(8-((3-methyl-4-((1-methyl-1H-benzo[d]imidazol-5-yl)oxy)phenyl)amino)pyrimido[5,4-d]pyrimidin-2-yl)amino)methyl)cyclopropan-1-ol], the concentration for half-maximal inhibition (IC50) on EGFR wild type (EGFR WT) was not below 5000 nM; against ErbB2 WT, 39.7 nM; in data set [1] it was 3 nM; in data set [2] it was 16.1 nM; on EGFR, not below 10000 nM. On MDR1 (P-gp) (setting [3]), the efflux ratio at 2 h, 1 μM came to 4.6.
With `Cc1cc(Nc2ncnc3cnc(N4CCOC(C(F)F)C4)nc23)ccc1Oc1ccc2c(c1)ncn2C` (stereo not drawn) [Example 181, 6-(2-(difluoromethyl)morpholino)-N-(3-methyl-4-((1-methyl-1H-benzo[d]imidazol-5-yl)oxy)phenyl)pyrimido[5,4-d]pyrimidin-4-amine], the IC50 on EGFR wild type (EGFR WT) is not below 5000 nM; on ErbB2 WT it was 171 nM; in data set [1], 53.4 nM; in data set [2], 81.5 nM; against EGFR it was not below 10000 nM. Also, the efflux ratio at 2 h, 1 μM on MDR1 (P-gp) (setting [3]) turned out to be 0.3.
Consider `Cc1cc(Nc2ncnc3cnc(N4CC5(CC5)CO4)nc23)ccc1Oc1ccc2c(c1)ncn2C` [Example 187, N-(3-methyl-4-((1-methyl-1H-benzo[d]imidazol-5-yl)oxy)phenyl)-6-(5-oxa-6-azaspiro[2.4]heptan-6-yl)pyrimido[5,4-d]pyrimidin-4-amine], for which the IC50 was not below 5000 nM against EGFR wild type (EGFR WT); 109 nM against ErbB2 WT; 14.3 nM in data set [1]; 38.4 nM in data set [2]; not below 10000 nM against EGFR. The efflux ratio at 2 h, 1 μM at MDR1 (P-gp) (LLC-PK1) is 2.7.
In the case of `Cc1cc(Nc2ncnc3cnc(NCC(C)(C)C#N)nc23)ccc1Oc1ccc2c(c1)ncn2C` [Example 200, 2,2-dimethyl-3-((8-((3-methyl-4-((1-methyl-1H-benzo[d]imidazol-5-yl)oxy)phenyl)amino)pyrimido[5,4-d]pyrimidin-2-yl)amino)propanenitrile], the IC50 is 4520 nM against EGFR wild type (EGFR WT); 52.6 nM on ErbB2 WT; 14.9 nM in data set [1]; 18.6 nM in data set [2]; not below 10000 nM at EGFR. Also, the efflux ratio at 2 h, 1 μM on MDR1 (P-gp) (setting [3]) was found to be 8.1.
On to `Cc1cc(Nc2ncnc3cnc(N)nc23)ccc1Oc1ccc2c(c1)ncn2C` [Example 206, N8-(3-methyl-4-((1-methyl-1H-benzo[d]imidazol-5-yl)oxy)phenyl)pyrimido[5,4-d]pyrimidine-2,8-diamine bis(2,2,2-trifluoroacetate)], for which the IC50 on EGFR wild type (EGFR WT) was not below 5000 nM; against ErbB2 WT, 40.8 nM; in data set [1], 24.8 nM; in data set [2], 12.6 nM; on EGFR, not below 10000 nM. Moreover, on MDR1 (P-gp) (setting [3]), the efflux ratio at 2 h, 1 μM turned out to be 3.3.

(Values after patent US11834453B2, “Substituted pyrimido[5,4-d]pyrimidines as HER2 inhibitors” (Array BioPharma Inc., priority 2020, dated 2023).)
